# Data reported in US7863414B2, “Methods of treatment and uses for CaMKII and its interaction with HDACs and calpain” (The Board of Regents of the University of Texas Systems, priority 2005, dated 2011).
# “Also recorded” adds a separate entry of the source.
# Columns and labels:
# [1] = tested on: HDAC4; experiment: Nuclear export of Flag-HDAC4 in cardiomyocytes (NRVMs), immunofluorescence; assay type: cell-based, rat; settings: for Effect of kinase inhibitor on PE-induced nuclear export of HDAC4: adenoviral Flag-HDAC4, inhibitor pretreatment 30 min, PE 4 hrs, Stauro 500 nmol/l, KN93 5 μmol/l, KN62 10 μmol/l, AIPII-2 500 nmol/l, Bis 2.5 μmol/l, Gö6976 200 nmol/l, H89 1 μmol/l; for Nuclear export of HDAC4 induced by adrenergic agonist: Flag-HDAC4, PE or Iso 10 μmol/l, up to 4 hrs
# From the text: (§1) Cardiomyocyte culture and adenoviral infection. NRVMs were isolated from 1-2 day Sprague Dawley rats. For adenovirus production, cDNAs encoding FLAG-tagged HDAC4 wild-type or a mutant containing alanines in place of serines 246, 467 and 632 (S/A) were subcloned into the pACCMV vector and co-transfected with pJM17 into 293 cells. Primary lysates were used to re-infect 293 cells and viral plaques were obtained using the agar overlay method. The production of adenoviral GFP-HDAC5 was described previously 18. NRVMs were infected 24 h after plating, starved for 4 h, and stimulated with PE or Iso for the indicated time period. In experiments with kinase inhibitors, NRVMs were pretreated with the inhibitor 30 min prior stimulation. For assessing cardiomyocyte hypertrophy, NRVMs were starved for 24 h and stimulated with PE for another 24 hrs. Subcellular localization of Flag-HDAC4 and cardiomyocyte hypertrophy, as assessed by sarcomeric organization, was determined by indirect immunofluorescence.
# (§2) Indirect Immunofluorescence. COS cells were grown on glass coverslips, fixed in paraformaldehyde (4%), permeabilized in 0.1% Triton-X-100 and blocked in PBS containing goat serum (5%). Primary antibodies against FLAG (monoclonal or rabbit; Sigma), Myc (polyclonal, A-14; Santa Cruz), or HA (polyclonal, Y-11; Santa Cruz) were used at a dilution of 1:200. Secondary antibodies conjugated to either fluoresceine or Texas Red (Vector Laboratories) were also used at a dilution of 1:200. Staining of NRVMs for sarcomeres was performed with an antibody directed against sarcomeric α-actinin (Sigma). All images were captured at a magnification of ×40.
# [2] = tested on: MEF2; experiment: Reporter assay of endogenous MEF2 activity (3xMEF2-Luc) in NRVMs; assay type: cell-based, rat; settings: ionomycin 0.25 μmol/l; for Effect on ionomycin-induced increase of endogenous MEF2 activity: NRVMs pretreated 30 min, Gö6976 200 nmol/l, KN93 2.5 μmol/l, KN62 5 μmol/l, CSA 1 μmol/l
# Experimental: Endogenous MEF2 activity in NRVMs. One day after plating, a MEF2 dependent luciferase reporter (3xMEF2-Luc)56, carrying three MEF2-DNA binding sites, was transfected into NRVMs using Lipofectamine plus (Invitrogen; Carlsbad, Calif.). To control for transfection efficiency NRVMs were cotransfected with a β-galactosidase reporter plasmid (pCMV-lacZ). Twenty-four hours after transfection, NRVMs were starved for 24 h, pretreated with kinase inhibitors or cyclosporine for 30 min and stimulated with ionomycin for 24 h. Luciferase and β-galactosidase levels were quantified employing the Luciferase Assay Kit (Promega) and the FluoReporter Kit (Molecular probes), respectively.
# [3] = tested on: HDAC5; experiment: Nuclear export of GFP-HDAC5 in cardiomyocytes (NRVMs); assay type: cell-based, rat; settings: PE 4 hrs
# From the text: as §1
# Indirect Immunofluorescence. COS cells were grown on glass coverslips, fixed in paraformaldehyde (4%), permeabilized in 0.1% Triton-X-100 and blocked in PBS containing goat serum (5%). Primary antibodies against FLAG (monoclonal or rabbit; Sigma), Myc (polyclonal, A-14; Santa Cruz), or HA (polyclonal, Y-11; Santa Cruz) were used at a dilution of 1:200. […]
# [4] = tested on: neonatal rat ventricular myocytes (NRVMs); experiment: Cardiomyocyte hypertrophy in NRVMs; assay type: cell-based; settings: data not shown
# From the text: as §1
# [5] = tested on: HDAC4-GFP; experiment: Cellomics high content assay, nuclear localization of HDAC4-GFP in COS cells transfected with activated CaMKII; assay type: cell-based; settings: COS cells transfected with HDAC4-GFP and CaMKII; concentration range; fixed at 48 hrs; EC50 only in FIG. 12
# Experimental: The plates are incubated at room temperature for 60 minutes.
# [6] = tested on: HDAC4; experiment: Subcellular localization of HDAC4 in Cos cells with active CaMKIIδB mutants, leptomycin B treatment; assay type: cell-based; settings: 12 hours
# Experimental: as §2, with “Cell culture and transfection assays. COS cells were maintained in DMEM with fetal bovine serum (10%), L-glutamine (2 mM), and penicillin-streptomycin. Transfection of COS cells was performed with Fugene 6 (Roche Molecular Biochemicals) according to manufacturer's instructions. Indirect” for “Indirect”
molecule,measurement,setting,value
Cn1c2ccccc2c2c3c(c4c5ccccc5n(CCC#N)c4c21)C(=O)NC3 [Gö6976],Effect of kinase inhibitor on PE-induced nuclear export of HDAC4,[1],did not affect
same,Effect on ionomycin-induced increase of endogenous MEF2 activity,[2],did not affect
O=S(=O)(NCCNC/C=C/c1ccc(Br)cc1)c1cccc2cnccc12 [H89],Effect of kinase inhibitor on PE-induced nuclear export of HDAC4,[1],did not affect
"C[C@H](CCC(=O)O)C[C@H](C)C[C@H](C)C(=O)/C=C(\O)[C@H](C)C[C@H](C)C/C=C/[C@@H](C)[C@@H](O)[C@@H](C)[C@@H](O)C[C@@H]1CC[C@@](C)([C@H]2CC[C@@](C)([C@@H](C)O)O2)O1 [Ionomycin, ionomycin]",Endogenous MEF2 activity (3xMEF2-Luc) after stimulation,[2]; NRVMs,doubled
CN([C@@H](Cc1ccc(OS(=O)(=O)c2cccc3cnccc23)cc1)C(=O)N1CCN(c2ccccc2)CC1)S(=O)(=O)c1cccc2cnccc12 [KN62],Effect of kinase inhibitor on PE-induced nuclear export of HDAC4,[1],markedly reduced; also recorded: effective in blocking
same,Effect on ionomycin-induced increase of endogenous MEF2 activity,[2],blocked
COc1ccc(S(=O)(=O)N(CCO)c2ccccc2CN(C)C/C=C/c2ccc(Cl)cc2)cc1 [KN93],Effect on PE-induced nuclear export of HDAC5,[3]; KN93 5 μmol/l pretreatment,not affected; also recorded: not blocked
same,Effect of kinase inhibitor on PE-induced nuclear export of HDAC4,[1],markedly reduced; also recorded: effective in blocking
same,Effect on ionomycin-induced increase of endogenous MEF2 activity,[2],blocked
CN(C)CCCn1cc(C2=C(c3c[nH]c4ccccc34)C(=O)NC2=O)c2ccccc21 [bisindolylmaleimide I],Effect of kinase inhibitor on PE-induced nuclear export of HDAC4,[1],did not affect
CC(C)NCC(O)c1ccc(O)c(O)c1 (centres unmarked) [isoprenaline],Hypertrophic growth response,[4],evoked a hypertrophic growth response
same,Nuclear export of HDAC4 induced by adrenergic agonist,[1],time-dependent nuclear export
same,Nuclear export of HDAC4 induced by adrenergic agonist,[1]; listed as Iso,time-dependently induced nuclear export
CCC(=C/[C@H](C)C/C=C/C(C)=C/[C@@H](C)C(=O)[C@@H](C)[C@H](O)[C@@H](C)C/C(C)=C/C(=O)O)/C=C/[C@@H]1OC(=O)C=C[C@@H]1C [leptomycin B],Dose response of HDAC4-GFP nuclear localization (Nuc-Cyto),[5],smooth dose response curves
same,Nuclear accumulation of HDAC4 after leptomycin B,[6]; absence or presence of constitutive nuclear active CaMKIIδb T287D/S332A,completely accumulated in the nucleus; also recorded: accumulates in the nucleus
same,Nuclear accumulation of HDAC4 after leptomycin B,[6]; presence of cytosolic active CaMKIIδb T287D/K328N/K329N or CaMKIIδb T287D,no accumulation
CNC[C@H](O)c1cccc(O)c1 [phenylephrine],Nuclear export of HDAC5 in response to agonist,[3],exported
same,Hypertrophic growth response,[4],evoked a hypertrophic growth response
same,Nuclear export of HDAC4 induced by adrenergic agonist,[1],time-dependent nuclear export
same,Nuclear export of HDAC4 induced by adrenergic agonist,[1]; listed as PE,time-dependently induced nuclear export
CN[C@@H]1C[C@H]2O[C@@](C)([C@@H]1OC)n1c3ccccc3c3c4c(c5c6ccccc6n2c5c31)C(=O)NC4 [staurosporine],Dose response of HDAC4-GFP nuclear localization (Nuc-Cyto),[5],smooth dose response curves
autoctamide-2 related inhibitory peptide II [AIPII-2],Effect of kinase inhibitor on PE-induced nuclear export of HDAC4,[1],effective in blocking
same,Effect of kinase inhibitor on PE-induced nuclear export of HDAC4,[1]; listed as AIPII,markedly reduced
